Data set [1] can be described thus: Encapsulation efficiency and loading of cargoes in thin-shell hollow PLGA nanoparticles. The format is physicochemical.
On the set-up of data set [2]: species or system mice. Conditions: mouse, in vivo. As for the experimental part:
FIG. […], is a depiction of STING agonist-loaded nanoparticles on enhancing lymphatic cytokines while minimizing systemic cytokines. • A: Induction of TNF-α in a mouse dendritic cell line following incubation with cd-GMP nanoparticles and free cd-GMP. • B: Induction of IL-6 in the same mouse dendritic cell line. • C: Induction of IFN-β in the mouse dendritic cell line. • D: Activation of JAWSII upon incubation with equivalent doses of cd-GMP in free molecule form and in nanoparticle formulation. • E: Quantification of lymph node IFN-β 48 hours following footpad injection of free cd-GMP or nanoparticle cd-GMP. • F: Level of systemic TNF-α following footpad injection of free cd-GMP and nanoparticle cd-GMP. Immune potentiation by the cd-GMP nanoparticles was further compared to free cd-GMP in vivo in mice. 48 hours following footpad injections, the draining popliteal lymph nodes were collected for IFN-β quantification. […] In addition, the systemic level of TNF-α, an indicator of reactogenicity, was also monitored following the footpad administration of free cd-GMP and cd-GMP nanoparticles.

Structures are written as SMILES.

On to `Nc1nc2c(ncn2[C@@H]2O[C@@H]3COP(=O)(O)O[C@H]4[C@@H](O)[C@H](n5cnc6c(=O)[nH]c(N)nc65)O[C@@H]4COP(=O)(O)O[C@H]3[C@H]2O)c(=O)[nH]1` [cyclic di-GMP], for which the encapsulation efficiency entry in data set [1] (cargo in thin-shell hollow PLGA nanoparticles, listed as cd-GMP) is listed as “about 40%”. Moreover, the “STING agonist molecules per nanoparticle” value in data set [1] (hollow particles 100 to 200 nm in diameter) is recorded as “approximately 2,000”. Besides, in data set [2], the “serum level of TNF-α, indicator of reactogenicity” value is on record as “elevated level”.

Source of the values: patent US20240180845A1, “THIN-SHELL POLYMERIC NANOPARTICLES AND USES THEREOF” (Academia Sinica, priority 2016, published 2024).
